Reference: US10787485B2, “Peptide for coating surfaces” (Universität Leipzig, priority 2015, dated 2020)
Entries after “also recorded” stand apart in the source; their conditions may differ.

Columns and labels:
[1] = Stability test by biotin ELISA of peptides immobilized on titanium, in SaOS-2 cell supernatant; format: in vitro ADME; settings: titanium coated at 1 μM, 37° C.
Description: (§1) For that, titanium slices were etched in order to obtain a freshly oxidized surface. Subsequently, the titanium slices were incubated with various peptide concentrations. Following intensive washing steps titanium-bound peptide was identified with the well-described biotin-streptavidin interaction. […] Moreover, stability of the DOPA peptides was tested in cell supernatant to imitate in vitro conditions. For that, titanium slices were coated with the corresponding biotinylated peptides (concentration=1 μM). Following incubation in SaOS-2 cell supernatant at 37° C. remaining peptide was identified by means of the biotin ELISA. Within a period of 7 days constantly more than 50% of immobilized and biotinylated peptide were detected (FIG. 2C).
Titanium slices were etched as described and incubated overnight with 1 μM of peptide solutions in TBS buffer at RT. Subsequently, the coated slices were washed 5 times with TBS-T buffer and transferred to new reaction vessels. Thereafter, the titanium slices were incubated with cell supernatant (of SaOS-2 cells after 2 days of cell cultivation) at 37° C. for certain times. To detect […], biotinylated peptide on the surface the titanium slices were washed 4 times with TBS-T and once with TBS and the biotin ELISA was performed as described. Zero reading values were obtained by uncoated titanium slices and subtracted from the generated data. The obtained measuring values were normalized to the value measured at 0 min. Error bars are represented as standard error of the mean (SEM) from at least 2 independent experiments (double determination).

[2] = Biotin ELISA, binding of biotinylated peptides to etched titanium slices; settings: for pEC50 binding affinity to titanium / EC50: biotinylated peptides, etched titanium slices, 2 hrs at RT in TBS; for EC50: read-out: EC50 binding affinity to titanium; for beginning of saturation phase of binding to titanium: concentration effect curve of the biotin ELISA
Description: Following synthesis of the mussel peptide by solid phase peptide synthesis (Fmoc/tBu strategy) the binding affinity to titanium was studied.
as §1
Titanium foil (Sigma Aldrich, thickness: 0.127 mm) was cut to round pieces (area=0.43 cm^2) and etched in H2SO4 (30%)/H2O2 (1:1 v/v) for 7 min. Following washing steps with water and TBS buffer (50 mM tris(hydroxymethyl)-aminomethane (Tris), 150 mM NaCl, pH 7.6) the titanium slices were incubated with various concentrations of biotinylated peptides in TBS buffer dissolved for 2 hrs. at RT. Subsequently, the coated slices were washed 5 times with TBS-T buffer (50 mM Tris, 150 mM NaCl, 0.1% Tween 20, pH 7.6) and transferred to new reaction vessels. The following biotin ELISA was performed in accordance with Hassert et al.^3 Zero reading values were obtained with uncoated titanium slices and subtracted from the generated values (absorption per cm^2). The obtained data points were non-linearly fitted with GraphPad Prism 5 software (GraphPadInc.). Error bars are represented as standard error of the mean (SEM) from at least 2 independent experiments.

[3] = tested on: SaOS-2 cells; assay: Proliferation assay (BrdU) on coated titanium; format: cell-based; settings: 24 h incorporation after 2 d of cell adhesion, normalized to uncoated titanium
Description: (§2) In addition to initial cell adhesion after 6 h cell viability and proliferation after 3 d was studied. Incorporation of the bromine-labeled thymidine analogue bromodeoxyuridine (BrdU) within 24 h, after 2 d of cell adhesion, was used to determine proliferation of cells on coated titanium. No significant changes could be found between the immobilized peptides and controls (FIG. 5C). However, a peptide coating is advantageous compared to untreated titanium. […] Cell viability was studied after 3 days of adhesion by reacting resazurin to resorufin by living cells. […] This fact emphasizes the cell repellent, but at the same time not toxic properties of the PEG. […] Thus, the advantageous approach to present both cell binding peptides in one molecule is confirmed.
Cells were sown onto coated and washed titanium slices in FCS-free medium in a 96-well plate. After one day the medium was replaced by FCS-containing medium. On day 2 bromodeoxyuridine (BrdU) was added to each well for labelling (colorimetric Cell Proliferation kit, Roche). After 24 hrs. of incorporation of the label the cells were washed and fixed. […] Binding of the antibody was detected with the addition of a 3,3′,5,5′-tetramethylbenzidine (TMB) solution and H2O2(Calbiochem). […] The measured values (mean±SEM) were evaluated from 4 independent experiments performed in triplicates and normalized to uncoated titanium.

[4] = tested on: SaOS-2 cells; assay: Viability assay (resazurin) on coated titanium; format: cell-based; settings: after 3 days of adhesion
Description: as §2
Cells were sown onto coated and washed titanium slices in FCS-free medium in a 96-well plate. After one day the medium was replaced by FCS-containing medium. On day 3 20 μL of CellTiderBlue® (Promega) were added to each well. After 2 hrs. of incubation the reaction of resazurin to resorufin was determined by means of fluorescence intensity measurement at 560Ex/590Em nm. The measured values (mean±SEM) were evaluated from 4 independent experiments performed in triplicate.

[5] = tested on: SaOS-2 cells; assay: Cell adhesion assay on peptide-coated titanium (fluorescence microscopy); format: cell-based; settings: 6 h adhesion, serum-free medium; for average cell plane (cell propagation, cell size) / cell morphology / actin cytoskeleton: 1 μM peptide coating; for cell number of adhered cells: normalized to uncoated Ti
Description: (§3) To determine the bioactivity of the ligated peptides and their controls cell adhesion studies have been performed. Osteoblast-like cells (SaOS-2) have been sown on etched peptide-coated titanium. All cellular experiments were performed in serum-free medium to prevent false results by adsorption of serum proteins. To study initial cell adhesion the cells were fixed and dyed after 6 h of cultivation to observe morphology and average cell plane and number by means of fluorescence microscopy. […] Indeed, an increase in cell size was observed, slightly higher than on uncoated titanium slices. […] Cells having a fibroblast-like morphology and distinct bundles of fibrils have been found on all RGD-containing peptide coatings. […] In addition to the average cell plane the cell number was determined by counting cells that adhered after 6 h. […] Moreover, a similar tendency as already in the cell plane experiment could be observed. […] It is known that RGD peptides mediate the formation of focal contacts that are decisive for the outer-inner communication between cell and ECM.^6 By immuno-labeling with an anti-vinculin antibody it is possible to visualize vinculin, a protein involved in building up focal adhesion.
Titanium foil was stamped and etched as already described. Following washing steps with water and PBS buffer (Dulbeccos phosphate) the titanium slices were sterilized with 70% ethanol/water (v/v) in an ultrasonic bath for 15 min. After having washed twice with PBS buffer the titanium slices were incubated overnight in a 48-well plate at RT with 300 μL of 1 μM of a peptide solution in PBS, PBS (negative control), and fibronectin in PBS (25 μg/mL, positive control).
Coated titanium slices (48-well plate) were washed twice with PBS. SaOS-2 cells were re-suspended in medium without FCS. Thereafter, the cells were sown on the coated titanium slices (50,000-90,000 cells per well, in this range we didn't find any influence on the cell plane for respective coating). Following adhesion for 6 hrs. the slices were washed with PBS and the cells were fixed with 4% paraformaldehyde in PBS for 30 min. Subsequently, the adhered cells were washed and permeabilized with 1% Triton X-100 in PBS for 1 min. Thereafter, the cells were dyed with phalloidin-tetramethylrhodamine isothiocyanate (phalloidin-TRITC) and HOECHST 33342 (both Sigma Aldrich). For fluorescence microscopy (Axio Observer microscope, Zeiss) the slices were attached to slides. For each slice (triplicate) 3 representative images at 20 fold and 10 fold magnification were made. Then, the average cell plane was determined by edging (Software Axio Vision 4.8, Zeiss) each single cell on one representative image (20 fold) each of each triplicate. The determined values were summarized from 3 independent experiments and represented as mean±SEM. To determine the cell number, three 10 fold magnified images were evaluated by means of ImageJ software and normalized to titanium=1, n≥3.

[6] = tested on: SaOS-2 cells; assay: Immunolabelling of focal contacts (vinculin) on peptide coatings; format: cell-based; settings: 24 hrs adhesion, anti-vinculin antibody
Description: as §3
Cells (40,000 per well) were sown onto coated and washed titanium slices as already described. After 1 d of cell adhesion the slices were washed twice with PBS. All of the following washing steps were performed with 0.05% (v/v) Tween-20 in PBS. Thereafter, the cells were fixed and permeabilized as already described. To block unspecific interactions the slices were incubated with 1% bovine serum albumin (BSA) in PBS for 40 min. Subsequently, the cells were incubated with a murine monoclonal antibody against vinculin (Millipore, staining kit, 1:200) for 1 hr. at RT. Thereafter, the cells were washed and labeled with phalloidin-TRITC and a fluoresceinisothiocyanate (FITC) conjugated goat anti-mouse antibody (Millipore, 1:100) in 1% (v/v) BSA in PBS for 2 hr. Following a further washing step the nucleus was dyed with 4′,6-diamidino-2-phenylindol (DAPI, Millipore) in PBS for 15 min. Before the slices were attached to slides they were washed three times for 10 min. each. Fluorescence microscopy was performed on an Axio Observer microscope and an ApoTome Imaging System (Zeiss).

Row | stability on titanium, comparison of peptides [1] | pEC50 binding affinity to titanium [2] | EC50 [2] | Substance | average cell plane (cell propagation, cell size) [5] | cell morphology / actin cytoskeleton [5] | formation of focal adhesion contacts (vinculin) [6] | further results
1 | no significant differences | 8.2±0.1 | 0.0064 µM | Bio-X-X-A-K-P*-S-Y*-P*-P*-T-Y*-K-NH2 [mefp-1] |  |  |  | beginning of saturation phase of binding to titanium [2]: sub-μM range
2 | no significant differences |  |  | Bio-X-X-C-Peg-Y*-K-Y*-Peg-G*-βA-NH2 [bio-MP] |  |  |  | 
3 |  |  |  | C-Peg-Y*-K(c[RGDfK])-Y*-Peg-G*(K(N3)-FHRRIKA-NH2)-βA-NH2 [MP-RGD-HBP] | highest average cell plane | distinctive, parallel actin filaments have formed | line-like adhesion contacts (green) were formed; also recorded: slight increase in focal complexes | cell proliferation (BrdU incorporation) [3]: slightly increased cell proliferation; cell viability (resazurin to resorufin) [4]: best result among all synthesized peptides
4 |  |  |  | C-Peg-Y*-K(c[RGDfK])-Y*-Peg-G*-βA-NH2 [MP-RGD] | average cell size comparable to the naturally occurring ECM protein fibronectin |  | line-like adhesion contacts (green) were formed | 
5 |  |  |  | C-Peg-Y*-K-Y*-Peg-G*(K(N3)-FHRRIKA-NH2)-βA-NH2 [MP-HBP] | increase of cell propagation compared with MP and uncoated titanium | only formed a few actin filaments and adhered in irregular cell shapes | a few or no focal adhesion contacts | 
6 | tendency to a higher stability | 7.6±0.1 | 0.0236 µM | C-Peg-Y*-K-Y*-Peg-G*-βA-NH2 [MP] | smallest cell propagation | rather round shape with slightly formed cytoskeleton | a few or no focal adhesion contacts | beginning of saturation phase of binding to titanium [2]: sub-μM range; cell viability (resazurin to resorufin) [4]: more living cells could be analyzed on this coating than on titanium; cell number of adhered cells [5]: smallest cell number
7 |  | 4.6±0.1 | > 10 µM | P*-T-Y-K-NH2 [bio-(−) mefp-1] |  |  |  | 
8 |  |  |  | c[RGDfK(dienophile)] |  |  |  | cell number of adhered cells [5]: increased to a greater extent than on HBP
